Test results taken from US9815865B2, “Preparations of hydrophobic therapeutic agents, methods of manufacture and use thereof” (Aciex Therapeutics, Inc., priority 2013, dated 2017).
Values after ≈ are worked out from the molar mass of the structure shown. Like-named read-outs stand apart in the source and are kept apart here.

What was measured:
[1] = Solubility of triamcinolone acetonide in non-aqueous solvents; assay type: physicochemical; conditions: preliminary estimation; for solubility at 15 min: organic solvent or mixture, thermodynamic from solid
Protocol: Triamcinolone Acetonide (TA), stock was used as received from the manufacturer. Solubility of Triamcinolone Acetonide (TA) was measured in propylene glycol, polypropylene glycol, TWEEN® 20 (polysorbate 20), TWEEN 80 (polysorbate 80), PEG 400.
Initially, 5 mg of the TA was added to 10 g of solvent; the mixture was vortexed for 5 min, and sonicated for 10 min in a water bath. 1-5 mg of TA was added when the initial amount dissolved in the solvent completely—clear solution of TA in solvent. The process was continued until saturation solubility was reached. The solvent that provided the highest solubility was chosen for further development as Phase I.
The solubility of TA in propylene glycol, polypropylene glycol, PEG 400, TWEEN® 20 (polysorbate 20) and TWEEN® 80 (polysorbate 80) was evaluated. Initially, 5 mg of TA was added to these solvents and the suspension was vortexed and sonicated for 15 min in a water bath at 37° C. When the API (i.e., TA) dissolved, 1 mg of drug was added to the vial. This process was continued until a preliminary estimation of the drug in all solvents was achieved.

[2] = cited from earlier work
[3] = Solubility of fluticasone propionate in FDA-approved solvents and excipients (RP-HPLC at 239 nm); assay type: physicochemical
Protocol: The specific composition of Phase I depends upon the solubility of the drug in this phase. […] The suspension was centrifuged at 10,000 rpm and the supernatant analyzed by RP-HPLC at 239 nm.

[4] = oral dosing of labeled and unlabeled conventional fluticasone propionate; cited from earlier work
[5] = Thermal analysis (DSC/TGA); assay type: physicochemical
Protocol: The table below summarizes the testing conditions and parameters for the simultaneous thermal analysis tests. The samples were (a) Fluticasone Propionate nanocrystals, and (b) Fluticasone Propionate, stock material. The specimens were tested under a heating rate of 10° C./min starting at 30° C. until reaching a final temperature of 350° C. This process was repeated for each specimen. The experiments were performed at EBATCO, LLC, Eden Prairie, Minn.
Thermal properties of the TA particles from Example 9 were investigated using a SHIMADZU® DSC-60 and TGA-50.
Approximately 10 mg of sample was analyzed in an open aluminum pan, and heated at scanning rate of 10° C.·min^−1 from room temperature to 320° C. […] Peak of the heat of melting is at 289.42° C., with ΔHm=83.50 J/g. In comparison, peak of the heat of melting for the nanocrystals produced by the process described in Example 9 is at 275.78° C., with ΔHm=108.45 J/g (FIG. 34).

Tap density = assay type: physicochemical
[6] = In-vitro dissolution study in vitreous humor; assay type: physicochemical, Bovine; conditions: crystals at 10 μm, 37° C., versus micronized TA at 10μ (FIG. 50)
Protocol: The rate of dissolution of ACX-TA crystals versus micronized TA in vitreous humor was studied. Bovine eyes were obtained fresh, and the vitreous humor was extracted. The vitreous humor was stored at 5° C., prior to use. 1 ml of crystals of various sizes (1.78 μm, 4.7 μm, 10.18 μm, or 15 μm) were incubated in a shaking incubator at 37° C. Crystals were prepared as described in Table 37 or 38. The crystals of 1.78 μm were prepared using citrate buffer and were of Form B, and the crystals of 4.7 μm, 10.18 μm, and 15 μm were prepared using phosphate buffer and were of Form C.

[7] = Saturated solubility and rate of dissolution of FP
Protocol: The saturated solubility of FP was measured by HPLC for the nanocrystals produced by the batch process of the invention, FP homogenized and FP stock material.

[8] = Stability of FP nanocrystal suspensions (assay, impurities, pH, particle size); assay type: physicochemical
From the text: This phase III composition was also stable chemically for more than 4 weeks at 40 degrees C. This combination of polymers also maintains the particle size at its original size for 5-14 days.
The stability of the nanocrystals is controlled by the pH of phase III, which is formed by the combination of phase I and phase II. A 20 gram batch of nanocrystals were produced at pH 5.5 and placed on stability at 25 degrees C. Another 20 gram batch was produced at pH 7.5 and stability determined at 25 degrees C. for 30 days. Unexpectedly, the particles at 7.5 grew rapidly to an average particle size greater than 1 micron. This phenomenon was verified for batches at the 50 gram scale.
It was also observed that the final compositions or formulations of FP were stable across all concentrations tested, i.e., 0.005%, 0.01%, 0.1%, and 10%. Samples were placed in 4° C., 25° C., 40° C. stability chambers. Stability time-points: T=0d, T=1 week, T=2 weeks, T=4 weeks.
Nanocrystals prepared by the batch process were tested on stability, to assess if the particle size distribution remained with a narrow range of 400-600 nm. […]
Samples were measured for particle size, pH, osmolality and assay. […]

Work on `CC1(C)O[C@@H]2C[C@H]3[C@@H]4CCC5=CC(=O)C=C[C@]5(C)[C@@]4(F)[C@@H](O)C[C@]3(C)[C@]2(C(=O)CO)O1` [triamcinolone acetonide, (4aS,4bR,5S,6aS,6bS,9aR,10aS,10bS)-4b-fluoro-6b-glycoloyl-5-hydroxy-4a,6a,8,8-tetramethyl-4a,4b,5,6,6a,6b,9a,10,10a,10b,11,12-dodecahydro-2H-naphtho[2′,1′:4,5]indeno[1,2-d][1,3] dioxol-2-one] yielded a solubility ([1]; in PEG 400, 37° C.) of 7 mg/mL (≈ 16.1 mM), a solubility ([1]; in polypropylene glycol, 37° C.) of 8 mg/mL (≈ 18.4 mM) and a solubility at 15 min ([1]; in Propylene glycol, sonicated in water bath at 37° C.) of 14 mg/mL (≈ 32.2 mM). The solubility at 15 min ([1]; in TWEEN 20 (polysorbate 20), 37° C.) was 5.5 mg/mL (≈ 12.7 mM), the solubility at 15 min ([1]; in TWEEN 80 (polysorbate 80), 37° C.) was 4 mg/mL (≈ 9.21 mM) and the water solubility ([2]; at 28° C.) was 0.0175 mg/mL (≈ 0.0403 mM). The “solubility (descriptive)” value ([2]; in water) was “practically insoluble”.
Compound `CCC(=O)O[C@]1(C(=O)SCF)[C@H](C)C[C@H]2[C@@H]3C[C@H](F)C4=CC(=O)C=C[C@]4(C)[C@@]3(F)[C@@H](O)C[C@@]21C` [fluticasone propionate, (6α,11β,16α,17α)-6,9,-difluoro-11-hydroxy-16-methyl-3-oxo-17-(1-oxopropoxy) androsta-1,4-diene-17-carbothioic acid, S-fluoromethyl ester] has a solubility ([3]; Acetone, 25 °C, organic solvent or mixture, thermodynamic from solid, in Acetone, overnight at 25 degrees centigrade, read-out: Solubility) of 63 mg/mL (≈ 126 mM), a solubility ([3]; Castor oil, 25 °C, oil or lipid, thermodynamic from solid, in Castor oil, overnight at 25 degrees centigrade, read-out: Solubility) of 0.018 mg/mL (≈ 0.036 mM) and a solubility ([3]; Corn oil, 25 °C, oil or lipid, thermodynamic from solid, in Corn oil, overnight at 25 degrees centigrade, read-out: Solubility) of 0.0069 mg/mL (≈ 0.0138 mM). It also gave a solubility ([3]; Ethanol, 25 °C, organic solvent or mixture, thermodynamic from solid, in Ethanol, equilibrated overnight at 25 degrees centigrade, read-out: Solubility) of 4.45 mg/mL (≈ 8.88 mM), a solubility ([3]; Glycerin, 25 °C, organic solvent or mixture, thermodynamic from solid, in Glycerin, overnight at 25 degrees centigrade, read-out: Solubility) of 0.144 mg/mL (≈ 0.288 mM) and a solubility ([3]; Methylene Chloride, 25 °C, organic solvent or mixture, thermodynamic from solid, in Methylene Chloride, overnight at 25 degrees centigrade, read-out: Solubility) of 9.25 mg/mL (≈ 18.5 mM). It also gave a solubility ([3]; PEG 200, 25 °C, organic solvent or mixture, thermodynamic from solid, in PEG 200, overnight at 25 degrees centigrade, read-out: Solubility) of 4.21 mg/mL (≈ 8.4 mM), a solubility ([3]; PEG 400, 25 °C, organic solvent or mixture, thermodynamic from solid, in PEG 400, overnight at 25 degrees centigrade, read-out: Solubility) of 4.33 mg/mL (≈ 8.65 mM) and a solubility ([3]; PHOSAL 50 PG, 25 °C, oil or lipid, thermodynamic from solid, in PHOSAL 50 PG, overnight at 25 degrees centigrade, read-out: Solubility) of 0.426 mg/mL (≈ 0.851 mM). The solubility ([3]; PPG, 25 °C, organic solvent or mixture, thermodynamic from solid, in PPG, overnight at 25 degrees centigrade, read-out: Solubility) was 2.23 mg/mL (≈ 4.45 mM), the solubility ([3]; Polysorbate 20, 25 °C, aqueous with cosolvent or surfactant or cyclodextrin, thermodynamic from solid, in Polysorbate 20, overnight at 25 degrees centigrade, read-out: Solubility) was 7.06 mg/mL (≈ 14.1 mM) and the solubility ([3]; Polysorbate 60, 25 °C, aqueous with cosolvent or surfactant or cyclodextrin, thermodynamic from solid, in Polysorbate 60, overnight at 25 degrees centigrade, read-out: Solubility) was 4.91 mg/mL (≈ 9.81 mM). The solubility ([3]; Polysorbate 80, 25 °C, aqueous with cosolvent or surfactant or cyclodextrin, thermodynamic from solid, in Polysorbate 80, overnight at 25 degrees centigrade, read-out: Solubility) was 4.66 mg/mL (≈ 9.3 mM), the solubility ([3]; Propylene glycol, 25 °C, organic solvent or mixture, thermodynamic from solid, in Propylene glycol, overnight at 25 degrees centigrade, read-out: Solubility) was 0.764 mg/mL (≈ 1.53 mM) and the solubility ([3]; Span 20, 25 °C, aqueous with cosolvent or surfactant or cyclodextrin, thermodynamic from solid, in Span 20, overnight at 25 degrees centigrade, read-out: Solubility) was 0.0469 mg/mL (≈ 0.0937 mM). For the same compound, the solubility ([3]; Span 80, 25 °C, aqueous with cosolvent or surfactant or cyclodextrin, thermodynamic from solid, in Span 80, overnight at 25 degrees centigrade, read-out: Solubility) was 0.0521 mg/mL (≈ 0.104 mM), the solubility ([3]; in Dextrose 5%, overnight at 25 degrees centigrade) was 0.0053 mg/mL (≈ 0.0106 mM) and the solubility ([3]; in PHOSAL 50 PG, overnight at 25 degrees centigrade) was 0.6601 mg/mL (≈ 1.32 mM). For the same compound, the solubility ([3]; in PHOSAL 53 MCT, overnight at 25 degrees centigrade) was 0.4000 mg/mL (≈ 0.799 mM), the solubility ([3]; in n-octanol, overnight at 25 degrees centigrade) was 0.0873 mg/mL (≈ 0.174 mM) and the solubility ([3]; oleic acid, 25 °C, oil or lipid, thermodynamic from solid, in oleic acid, overnight at 25 degrees centigrade, read-out: Solubility) was 0.0136 mg/mL (≈ 0.0272 mM). The solubility ([3]; phosphate buffer, 25 °C, pH 7, aqueous buffer, thermodynamic from solid, in Phos buff pH = 7, overnight at 25 degrees centigrade, read-out: Solubility) was 0.0095 mg/mL (≈ 0.019 mM), the solubility ([3]; water, 25 °C, water, thermodynamic from solid, in water, overnight at 25 degrees centigrade, read-out: Solubility) was 0.00014 mg/mL (≈ 0.00028 mM) and the “solubility (descriptive)” value ([2]; in dimethyl sulfoxide and dimethyl-formamide) was “freely soluble”. The “solubility (descriptive)” value ([2]; in methanol and 95% ethanol) was “slightly soluble” and the oral systemic bioavailability [4] was less than 1%.
For `CC1(C)O[C@@H]2C[C@H]3[C@@H]4CCC5=CC(=O)C=C[C@]5(C)[C@@]4(F)[C@@H](O)C[C@]3(C)[C@]2(C(=O)CO)O1` [Stock TA, as purchased], the “Tm (Melting Point)” value [5] was 289.61 °C.
`CC1(C)O[C@@H]2C[C@H]3[C@@H]4CCC5=CC(=O)C=C[C@]5(C)[C@@]4(F)[C@@H](O)C[C@]3(C)[C@]2(C(=O)CO)O1` [TA stock material] showed a tap density (Tap density) of 0.4211 g/mL.
With `CC1(C)O[C@@H]2C[C@H]3[C@@H]4CCC5=CC(=O)C=C[C@]5(C)[C@@]4(F)[C@@H](O)C[C@]3(C)[C@]2(C(=O)CO)O1` [ACX-TA crystals] the “rate of dissolution in vitreous humor” value [6] was “much slower rate of dissolution than micronized TA” and the tap density (Tap density) was 0.5677 g/mL.
`CCC(=O)O[C@]1(C(=O)SCF)[C@H](C)C[C@H]2[C@@H]3C[C@H](F)C4=CC(=O)C=C[C@]4(C)[C@@]3(F)[C@@H](O)C[C@@]21C` [FP homogenized] gave a saturated solubility [7] of 0.04 to 0.045 mg/mL.
For `CCC(=O)O[C@]1(C(=O)SCF)[C@H](C)C[C@H]2[C@@H]3C[C@H](F)C4=CC(=O)C=C[C@]4(C)[C@@]3(F)[C@@H](O)C[C@@]21C` [Form A], the dissolution rate ([7]; in water at room temperature) was “about 1 μg/g/day”, the “time to reach saturated solubility” value ([7]; incubation in an aqueous medium) was 6 weeks and the agglomeration over time ([8]; after purification (FIG. 10)) was “did not display any agglomeration over time”. The “average particle size on stability” value ([8]; phase III pH 7.5, 25 degrees C. for 30 days) was “greater than 1 micron”, the tap density (Tap density) was 0.5786 g/mL and the tap density (Tap density; listed as dried fluticasone propionate crystals prepared by the batch process) was 0.5786 g/mL.
In the case of `CCC(=O)O[C@]1(C(=O)SCF)[C@H](C)C[C@H]2[C@@H]3C[C@H](F)C4=CC(=O)C=C[C@]4(C)[C@@]3(F)[C@@H](O)C[C@@]21C` [FP stock material], the “time to reach saturated solubility” value [7] was no more than 2 weeks and the tap density (Tap density; listed as fluticasone propionate stock) was 0.3278 g/mL.
